Source: patent US20120053220A1, “NOVEL LIPOXYGENASE INHIBITORS AS NEUROPROTECTIVE AGENTS” (The General Hospital Corporation d/b/a Massachusetts …, priority 2007, published 2012)

What was measured:
15-hLOX-1 = target: T1, 15-hLOX-1 (Homo sapiens, UniProt P16050); conditions: natural products known to inhibit 15-hLOX-1; read-out: IC50 against 15-hLOX-1; cited from earlier work
T1 sequence (P16050 1-662): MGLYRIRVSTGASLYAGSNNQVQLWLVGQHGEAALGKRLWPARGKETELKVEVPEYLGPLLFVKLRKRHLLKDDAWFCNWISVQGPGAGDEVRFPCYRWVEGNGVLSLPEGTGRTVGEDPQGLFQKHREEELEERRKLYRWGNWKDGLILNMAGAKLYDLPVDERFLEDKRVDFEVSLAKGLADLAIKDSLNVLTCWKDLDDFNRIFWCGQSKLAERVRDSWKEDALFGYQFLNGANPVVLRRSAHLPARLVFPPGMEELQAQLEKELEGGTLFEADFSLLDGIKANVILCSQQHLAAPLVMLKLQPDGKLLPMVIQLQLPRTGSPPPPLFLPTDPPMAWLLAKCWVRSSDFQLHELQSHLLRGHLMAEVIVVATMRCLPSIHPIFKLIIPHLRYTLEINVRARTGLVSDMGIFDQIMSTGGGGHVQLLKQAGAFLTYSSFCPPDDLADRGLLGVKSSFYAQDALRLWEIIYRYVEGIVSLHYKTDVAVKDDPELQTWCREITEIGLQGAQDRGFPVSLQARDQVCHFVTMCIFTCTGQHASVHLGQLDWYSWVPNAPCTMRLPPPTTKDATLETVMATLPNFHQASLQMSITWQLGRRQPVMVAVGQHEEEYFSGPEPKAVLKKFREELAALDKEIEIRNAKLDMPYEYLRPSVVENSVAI

[1] = antioxidant test: quenching of the stable free radical DPPH; conditions: 5 μM test compound, 500 μM DPPH, absorbance 517 nm; FIG. 1B
Method: The rate of reaction is proportional to the antioxidant potency of the test compounds. A known free radical scavenger, nordihydroguaiaretic acid (NDGA), was used as a positive control. 10 μL, of 1 mM testing reagents to achieve final concentrations of 5 μM were added to 2 mL of 500 μM DPPH stirring in a cuvette.

| Compound | IC50 (15-hLOX-1) | antioxidant activity (quenching of DPPH radical) [1] |
| --- | --- | --- |
| C[C@H]1[C@H](C)CC[C@]2(C)CC[C@]3(C)C(=CC[C@@H]4[C@@]5(C)CC[C@@H](O)[C@](C)(C(=O)O)[C@@H]5CC[C@]43C)[C@H]12 [boswellic acid] | 1000 nM | – |
| CC(Cc1ccc(O)c(O)c1)C(C)Cc1ccc(O)c(O)c1 (centres unmarked) [NDGA, nordihydroguaiaretic acid] | – | rapid quenching |
